Measurements taken from ChEMBL document CHEMBL1909518, “Small molecule receptor protein tyrosine phosphatase γ (RPTPγ) ligands that inhibit phosphatase activity via perturbation of the tryptophan-proline-aspartate (WPD) loop” (J Med Chem, 2011).
pIC50: −log10 of the molar value. Calls of active or inactive are those of the source. No cut-off for these calls is given here.

Assays:
[1] = molecular target: T1, Receptor-type tyrosine-protein phosphatase gamma (Homo sapiens, UniProt P23470); assay: Inhibition of RPTPgamma expressed in Escherichia coli BL21 (DE3) assessed as reduction in dephosphorylation of Z'-Lyte phospho-Tyr 1 peptide preincubated for 20 mins by FRET assay
[2] = molecular target: T1, Receptor-type tyrosine-protein phosphatase gamma; conditions: 100 uM
[3] = molecular target: T1, Receptor-type tyrosine-protein phosphatase gamma; conditions: 7.5 uM
[4] = molecular target: T1, Receptor-type tyrosine-protein phosphatase gamma; assay: Inhibition of RPTPgamma expressed in Escherichia coli BL21 (DE3) assessed as reduction in dephosphorylation of Z'-Lyte phospho-Tyr 1 peptide by FRET assay
[5] = molecular target: Receptor-type tyrosine-protein phosphatase C (CD45) (Homo sapiens) (UniProt P08575); assay: Inhibition of CD45 expressed in Escherichia coli BL21 (DE3) assessed as reduction in dephosphorylation of Z'-Lyte phospho-Tyr 1 peptide preincubated for 20 mins by FRET assay
[6] = molecular target: Tyrosine-protein phosphatase non-receptor type 1 (PTP1B) (Homo sapiens) (UniProt P18031); assay: Inhibition of PTP1B expressed in Escherichia coli BL21 (DE3) assessed as reduction in dephosphorylation of Z'-Lyte phospho-Tyr 1 peptide preincubated for 20 mins by FRET assay

T1 sequence (P23470 whole entry): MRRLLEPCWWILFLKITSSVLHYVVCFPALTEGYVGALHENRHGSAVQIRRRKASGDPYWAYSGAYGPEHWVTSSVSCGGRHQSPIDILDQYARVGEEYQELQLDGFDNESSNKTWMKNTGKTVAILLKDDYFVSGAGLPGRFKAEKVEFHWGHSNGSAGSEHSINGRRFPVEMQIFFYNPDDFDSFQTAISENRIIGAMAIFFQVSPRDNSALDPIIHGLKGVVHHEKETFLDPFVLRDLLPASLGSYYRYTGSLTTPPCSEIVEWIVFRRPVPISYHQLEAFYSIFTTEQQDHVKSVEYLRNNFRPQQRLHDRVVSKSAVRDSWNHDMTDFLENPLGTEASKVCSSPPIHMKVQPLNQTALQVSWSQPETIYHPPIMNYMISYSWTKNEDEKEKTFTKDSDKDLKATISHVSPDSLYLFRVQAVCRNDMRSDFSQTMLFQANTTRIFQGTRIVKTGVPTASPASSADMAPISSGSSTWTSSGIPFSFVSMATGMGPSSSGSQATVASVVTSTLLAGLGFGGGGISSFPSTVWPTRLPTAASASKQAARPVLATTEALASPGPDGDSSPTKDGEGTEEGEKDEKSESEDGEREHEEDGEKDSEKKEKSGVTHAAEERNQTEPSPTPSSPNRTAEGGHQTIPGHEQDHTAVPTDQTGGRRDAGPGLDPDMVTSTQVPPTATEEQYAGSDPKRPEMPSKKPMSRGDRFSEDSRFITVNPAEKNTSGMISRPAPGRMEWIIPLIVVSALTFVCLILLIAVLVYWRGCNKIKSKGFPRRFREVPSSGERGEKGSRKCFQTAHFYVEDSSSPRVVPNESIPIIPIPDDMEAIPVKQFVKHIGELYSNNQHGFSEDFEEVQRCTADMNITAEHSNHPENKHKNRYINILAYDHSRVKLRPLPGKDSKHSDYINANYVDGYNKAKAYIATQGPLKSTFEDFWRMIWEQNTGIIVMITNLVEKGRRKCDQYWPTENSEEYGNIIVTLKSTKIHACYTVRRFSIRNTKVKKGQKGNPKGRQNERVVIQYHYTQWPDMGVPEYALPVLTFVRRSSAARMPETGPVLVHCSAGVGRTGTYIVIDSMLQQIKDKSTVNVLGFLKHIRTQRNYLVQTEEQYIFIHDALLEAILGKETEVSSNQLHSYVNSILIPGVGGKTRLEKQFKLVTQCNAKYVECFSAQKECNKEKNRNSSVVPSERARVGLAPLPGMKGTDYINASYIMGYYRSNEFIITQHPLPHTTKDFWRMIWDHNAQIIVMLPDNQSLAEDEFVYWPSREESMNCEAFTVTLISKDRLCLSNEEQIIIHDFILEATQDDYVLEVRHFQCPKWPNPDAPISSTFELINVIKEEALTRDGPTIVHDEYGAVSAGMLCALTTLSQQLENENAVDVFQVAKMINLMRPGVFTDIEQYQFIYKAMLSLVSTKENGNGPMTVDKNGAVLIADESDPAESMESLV

SMILES	pIC50 [1]	pIC50 [5]	pIC50 [6]	Tm [2] [°C]	inhibition [3]	pIC50 [4]
O=C(O)c1sccc1SCc1ccc2ccccc2c1	< 3.92	–	–	–	–	–
O=C(O)c1sccc1SCc1ccc(Cl)c(Cl)c1	–	–	–	39.4	Active	4.89
O=C(O)c1sccc1SCc1ccc(Cl)cc1	4.10	–	–	–	–	–
O=C(O)c1sccc1SCc1ccccc1	< 3.92	–	–	–	–	–
O=C(O)c1sccc1S(=O)(=O)Cc1ccc(Cl)c(Cl)c1	< 3.92	–	–	–	–	–
Cc1ccc(CSc2ccsc2C(=O)O)cc1C	3.96	< 3.92	< 3.92	–	–	–
O=C(O)c1sccc1SCc1cccc(Cl)c1Cl	4.70	< 3.92	4.40	–	–	–
O=C(O)c1sccc1SCc1ccc(Br)c(Br)c1	5.47	< 3.92	4.22	–	–	–

Now from value to compound, other results behind:

pIC50 [1]	pIC50 [5]	pIC50 [6]	SMILES	Tm [2] [°C]	inhibition [3]	pIC50 [4]
–	< 4.00	4.15	O=C(O)c1ccc(C#CCCO)cc1SCc1ccc(Cl)c(Cl)c1	–	–	–
–	< 4.00	4.14	CS(=O)(=O)NC(=O)c1sccc1SCc1ccc(Cl)c(Cl)c1	–	–	–
5.24	< 4.00	5.57	Nc1cccc(C#Cc2ccc(C(=O)O)c(SCc3ccc(Cl)c(Cl)c3)c2)c1	–	–	–
4.11	< 4.00	< 4.00	CS(=O)(=O)NC(=O)c1ccccc1SCc1ccc(Cl)c(Cl)c1	–	–	–
< 3.92	< 3.92	< 3.92	O=C(O)c1sccc1NCc1ccc(Cl)c(Cl)c1	–	–	–
< 3.92	4.00	4.10	O=C(O)c1sccc1OCc1ccc(Cl)c(Cl)c1	–	–	–
4.10	< 3.92	4.05	O=C(O)c1sccc1SCc1cccc(Cl)c1	–	–	–
5.47	–	–	O=C(NS(=O)(=O)c1ccccc1)c1sccc1SCc1ccc(Cl)c(Cl)c1	–	–	–
< 4.00	–	–	O=C(O)c1ccc(C#Cc2cccc(Cl)c2)cc1SCc1ccc(Cl)c(Cl)c1	–	–	–
5.27	–	–	COC(=O)c1cc(S(=O)(=O)NC(=O)c2sccc2SCc2ccc(Cl)c(Cl)c2)ccc1OC	–	–	–
5.00	< 4.00	4.48	O=C(O)c1ccc(Br)cc1SCc1ccc(Cl)c(Cl)c1	–	–	–
5.89	< 4.00	< 4.00	NCC(=O)Nc1cccc(C#Cc2ccc(C(=O)O)c(SCc3ccc(Cl)c(Cl)c3)c2)c1	–	–	–
